Experimental data from US20090023773A1, “COMPOSITIONS AND METHODS FOR MODULATING GATED ION CHANNELS” (PainCeptor Pharma Corporation, priority 2007, published 2009).

Tests used:
[1] = test system: chemically-induced spontaneous pain evoked by intraplantar injection of formalin; test: Formalin test, model of acute tonic pain (Example 7); format: in vivo; settings: rat, SC, 10 and 300 μmol/kg
Procedure: Male Sprague-Dawley rats are housed together in groups of three animals under standard conditions with unrestricted access to food and water. All experiments are conducted according to the ethical guidelines for investigations of experimental pain in conscious animals (Zimmerman, 1983).
Assessment of formalin-induced flinching behavior in normal, uninjured rats (body weight 200-300 g) is made after formalin (2.5% in saline, 50-100 μl, s.c.) is injected into the plantar surface of the hindpaw using a 27 G needle. Rats are pretreated with test compounds either administered intravenously (IV), by subcutaneous injection (SC) or by orally (PO).
Nociceptive behavior is determined manually every 5 min by measuring the amount of time spent in each of four behavioral categories: 0, treatment of the injected hindpaw is indistinguishable from that of the contralateral paw; 1, the injected paw has little or no weight placed on it; 2, the injected paw is elevated and is not in contact with any surface; 3, the injected paw is licked, bitten, or shaken. A weighted nociceptive score, ranging from 0 to 3 is calculated by multiplying the time spent in each category by the category weight, summing these products, and dividing by the total time for each 5 min block of time. (Coderre et al., Pain 1993; 54: 43). On the basis of the resulting response patterns, […] of nociceptive behavior are identified and scored: first phase (P1; 0-5 min), interphase (Int; 6-15 min), second phase (P2; […]), phase 2A (P2A; 16-40 min) and phase 2B (P2B; 41-60 min).
Statistical analysis is performed using the Prism™ 4.01 software package (GraphPad, San Diego, Calif., USA). The difference in response levels between treatment groups and control vehicle group is analyzed using an ANOVA followed by Bonferroni's method for post-hoc pair-wise comparisons. A p value <0.05 is considered to be significant.

[2] = target: T1, hASIC2a/3 steady state (window) current (Homo sapiens, UniProt Q16515+Q9UHC3); test: ASIC2a/3 assay, automated two-electrode voltage clamp in oocytes microinjected with hASIC2a and hASIC3 (Example 2); format: cell-based; settings: 50 μM, perfusion at pH 6.5; FIG. 8
T1 construct: expressed in transfected cells; host or cells: Xenopus laevis oocytes, cRNA microinjection, 1:1 mass ratio
T1 sequence (Q16515 1-512): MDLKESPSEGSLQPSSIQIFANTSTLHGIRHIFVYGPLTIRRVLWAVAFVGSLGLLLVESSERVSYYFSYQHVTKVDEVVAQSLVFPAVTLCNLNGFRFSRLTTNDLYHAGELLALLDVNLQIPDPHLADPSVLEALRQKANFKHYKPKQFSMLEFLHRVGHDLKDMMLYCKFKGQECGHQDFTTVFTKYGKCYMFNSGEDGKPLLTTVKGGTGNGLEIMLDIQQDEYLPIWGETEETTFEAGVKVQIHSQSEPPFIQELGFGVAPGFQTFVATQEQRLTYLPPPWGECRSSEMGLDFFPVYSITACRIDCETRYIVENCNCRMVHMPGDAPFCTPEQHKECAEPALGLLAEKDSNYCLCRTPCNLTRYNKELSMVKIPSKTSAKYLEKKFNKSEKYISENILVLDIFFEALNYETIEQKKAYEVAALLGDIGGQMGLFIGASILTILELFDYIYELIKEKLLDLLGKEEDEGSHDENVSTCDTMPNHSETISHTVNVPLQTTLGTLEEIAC
T1 sequence (Q9UHC3 1-531): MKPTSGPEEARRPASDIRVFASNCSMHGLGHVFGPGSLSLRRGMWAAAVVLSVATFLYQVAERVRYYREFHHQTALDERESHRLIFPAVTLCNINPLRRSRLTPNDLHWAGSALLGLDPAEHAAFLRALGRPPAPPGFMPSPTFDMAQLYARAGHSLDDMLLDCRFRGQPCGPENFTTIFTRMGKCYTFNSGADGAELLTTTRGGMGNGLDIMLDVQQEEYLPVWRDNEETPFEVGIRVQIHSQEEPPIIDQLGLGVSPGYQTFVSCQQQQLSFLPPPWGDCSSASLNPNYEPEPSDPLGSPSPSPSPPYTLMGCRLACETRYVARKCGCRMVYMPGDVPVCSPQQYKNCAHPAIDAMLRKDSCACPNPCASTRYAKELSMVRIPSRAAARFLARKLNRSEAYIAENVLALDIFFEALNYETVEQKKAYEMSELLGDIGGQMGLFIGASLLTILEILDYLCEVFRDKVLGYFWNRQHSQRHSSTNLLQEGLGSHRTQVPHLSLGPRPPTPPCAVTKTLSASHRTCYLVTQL
Procedure: The ASIC2a/3 assay involves methods and procedures commonly in use and have been extensively described in the literature.
Briefly, a mature female frog is placed on its back after anesthesia, 20 min in 0.1% (w/v) Tricaine (Sigma), and incision is made on the lower abdomen through the skin, muscle and into the peritoneum. Lobes of ovaries are pulled out with forceps, cut and placed in a solution of Ca^2+-free Barth's with 1% (w/v) collagenase Type I (Sigma) added, for 90 minutes. The dissociated eggs are then washed with complete Barth's, supplementd with […] Gentamycin.
Plasmids containing cDNA for ASIC2a+ASIC3 are linearized and used for cRNA synthesis. The synthesis is done according to the protocol insert of the synthesis kit (e.g. Message Machine, Ambion). The final resuspension of the cRNA is made to provide a concentration of 1 μg/μL. The cDNA's for hASIC2a and hASIC3 are mixed with a 1:1 mass ratio and injected at […] per oocyte. Micro-injected oocytes start expressing hASIC2a3 specific current after 24 h.
The oocytes micro-injected with hASIC2a and hASIC3 cRNA's are placed in the recording chambers of the automated rig and then impaled with the voltage and current micro-electrodes. […] The voltage and current for each oocyte is recorded in one pass during both applications for later analysis. […]

[3] = test system: acute paw inflammation caused by intraplantar injection of λ-carrageenan; test: Carrageenan model for pain (Example 8); format: in vivo; settings: rat; 120 mg/kg PO, 30 min prior to carrageenan; 4 h post-carrageenan
Procedure: Acute inflammatory hyperalgesia is induced in rats by unilateral injection of 150 μl of a 3% solution of λ-carrageenan into the plantar surface of the left hind paw 3-5 hours prior to testing. Thermal hyperalgesia, mechanical allodynia, mechanical hyperalgesia, weight bearing asymmetry and paw inflammation were determined. Rats are pretreated with test compounds either administered intravenously (IV), by subcutaneous injection (SC) or by oral gavage (PO).
Thermal nociceptive thresholds are determined according to the method described elsewhere (Hargreaves et al., 1988). Briefly, through the glass surface, a radiant heat source (8V, 50 W projector bulb) is focused onto the plantar surface of the hind paw. The rat's paw-withdrawal latency to this stimulus is recorded to the nearest 0.1 s. Each latency score is an average of three trials, which are separated by at least 5 min. In all rats, both the injured and uninjured hind paws are similarly tested, allowing direct comparisons between inflamed and non-inflamed paws. […]
Mechanical hyperalgesia is determined by measuring the difference of withdrawal thresholds in response to increasing pressure in the inflamed vs contralateral paw using the Randall-Sellito Paw pressure meter (IITC Life Science) (Randall L O and Sellito J J., 1957). Briefly, rats are held in a contention jacket suspended by a stand and allowed to acclimate for 10 min. Then the tips of the paw pressure applicator are positioned close to the middle of the plantar and the dorsal area of the paw, avoiding the saphenous nerve innervations and an increasing pressure is applied until the rat removes it. Measures are performed in triplicate for each paw by alternating each paw with an interval of at least 1 min to avoid sensitization. […]
Carrageenan induced paw oedema is measured with a plethysmometer (IITC Life Science). Briefly, a mark is made on the ankles of the rat and the ipsi and contralateral paw are submerged 3 times into water up to the mark in order to determine the paw volume by calculation of water displacement.

[4] = target: T2, hASIC1a (Homo sapiens, UniProt P78348); test: Fluorescent calcium dye (Fluo-4-NW) assay in cells expressing hASIC1a (Example 1); format: cell-based; settings: CHO cells stably expressing hASIC1a, mild acidic buffer, increasing concentrations; FIGS. 1A-1C
T2 construct: expressed in transfected cells
T2 sequence (P78348 1-528): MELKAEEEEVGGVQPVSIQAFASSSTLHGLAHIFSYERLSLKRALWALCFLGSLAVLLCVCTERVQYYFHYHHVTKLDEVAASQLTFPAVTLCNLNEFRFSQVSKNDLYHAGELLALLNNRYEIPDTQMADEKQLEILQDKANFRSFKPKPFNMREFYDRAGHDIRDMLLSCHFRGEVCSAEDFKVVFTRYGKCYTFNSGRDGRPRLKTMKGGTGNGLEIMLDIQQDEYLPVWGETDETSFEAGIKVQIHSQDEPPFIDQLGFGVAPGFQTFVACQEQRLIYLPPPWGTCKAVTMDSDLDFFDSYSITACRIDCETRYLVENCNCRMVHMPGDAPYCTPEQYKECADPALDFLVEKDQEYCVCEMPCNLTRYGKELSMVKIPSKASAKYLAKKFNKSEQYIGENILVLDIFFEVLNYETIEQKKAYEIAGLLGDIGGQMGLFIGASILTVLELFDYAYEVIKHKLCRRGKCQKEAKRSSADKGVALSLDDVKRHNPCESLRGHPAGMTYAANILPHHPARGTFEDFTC
Procedure: ASIC1a expressing CHO cells are grown in culture medium (DMEM with 10% FBS), in polystyrene culture flasks ([…]) at 37° C. in a humidified atmosphere of 5% CO2. Confluency of cells should be 70-90% on day of plating. Cells are rinsed with 10 ml of PBS and cells are re-suspended by addition of culture medium and trituration with a 25 ml pipette. The cells are seeded at a density of approximately 10^4 cells/ml (50 μl/well and then brought to a total volume of 150 μl/well with culture medium, following 30 minutes incubation) in black-walled, clear bottom, 96-well plates pre-treated with poly-D-lysine (from BD Bioscience). Plated cells were allowed to proliferate for 48-72 h before loading with dye. Fluo-4-NW (500 μg, DiscoveRX) is dissolved in 110 μl DMSO. The Fluo-4-NW stock solution (1000×) is diluted with the assay buffer. A water soluble stock solution (100×) of probenicid (DiscoveRX) and a stock solution (1000×) of pluronic acid (P-127, Molecular Probes) are also added in the loading buffer containing Fluo-4NW dye. The culture medium is aspirated from the wells, and 100 μl of the Fluo-4-NW loading solution is added to each well. The cells are incubated at 37° C. for 30 min. followed by 30 min. incubation at room temperature. The assay buffer contains 90 mM NaCl, 5 mM KCl, 4 mM CaCl2, 0.8 mM MgSO4, 50 mM NMDG, 5 mM Glucose-D, 10 mM HEPES, pH 7.4. After the loading time, the loading buffer is not removed and the fluorescence is measured in FlexStation™ (Molecular Devices, USA), or any other suitable equipment known to the skilled in the art. Temperature: 25° C. First addition: 50 μl test solution at a rate of 26 μl/sec and a starting height of 125 μl. […] Reading intervals: pre-incubation—120 sec. antagonist phase, addition of MES at 145 sec. and reading time with agonist 100 sec (total run time of 240 sec.). Fluorescence obtained after stimulation is corrected for the mean basal fluorescence (in modified Assay Buffer). […] Gated-channel activity was determined by measuring intracellular calcium variation using a fluorescent calcium dye (Fluo-4-NW).

[5] = target: T3, recombinant homomeric hASIC1a channels (Homo sapiens, UniProt P78348); test: Two-electrode voltage clamp in Xenopus laevis oocytes expressing gated ion channels (Example 4); format: cell-based
T3 construct: expressed in transfected cells; host or cells: Xenopus laevis oocytes (nuclear microinjection of expression vector such as pcDNA3)
T3 sequence (P78348 1-528): T2 sequence (P78348 1-528)

inhibition of the ASIC 2a/3 current [2] | inhibition of acid-induced hASIC1a activity (intracellular calcium variation) [4] | IC50 ([5]; Table 1, generated using oocytes as in Example 4) | reduction in the current evoked by a mild pH stimulation ([5]; acid-induced inward currents in oocytes injected with hASIC1a cDNA, FIGS. 2A-2C) | SMILES | pain intensity as evaluated by the licking behavior ([1]; 60 min prior to formalin, FIG. 9A) | mechanical hyperalgesia [3] | size of the inflammation [3] | thermal hyperalgesia [3] | pain intensity as evaluated by the licking behavior ([1]; 30 min prior to formalin, FIG. 3A)
specific inhibition |  |  |  | O=C(O)c1ccc(Nc2nc(-c3ccc(Cl)cc3)nc3ccccc23)cc1 [Compound 111] | dose-dependent reduction |  |  |  | 
 | dose-dependently inhibited | 0.1 to 10 µM | clear dose-dependent reduction | Cc1cc(OC2CCN(Cc3ccccc3C(=O)O)CC2)c2cccc(F)c2n1 [Compound 1] |  | reversed | reduced | reversed | dose-dependent reduction
